From ChEMBL document CHEMBL1687837, “Roles of residues Cys69, Asn104, Phe160, Gly232, Ser237, and Asp240 in extended-spectrum beta-lactamase Toho-1” (2011)
Converted amounts (≈) assume the structure as drawn.

B1: Beta-lactamase Toho-1 (Escherichia coli), Q47066 (protein)
chain: MMTQSIRRSMLTVMATLPLLFSSATLHAQANSVQQQLEALEKSSGGRLGVALINTADNSQILYRADERFAMCSTSKVMAAAAVLKQSESDKHLLNQRVEIKKSDLVNYNPIAEKHVNGTMTLAELGAAALQYSDNTAMNKLIAHLGGPDKVTAFARSLGDETFRLDRTEPTLNTAIPGDPRDTTTPLAMAQTLKNLTLGKALAETQRAQLVTWLKGNTTGSASIRAGLPKSWVVGDKTGSGDYGTTNDIAVIWPENHAPLVLVTYFTQPEQKAERRRDILAAAAKIVTHGF

What was measured:
Escherichia coli [1] = assay: Activity of Escherichia coli beta-lactamase Toho-1 […] mutant assessed as compound hydrolysis by spectrophotometry
Escherichia coli [2] = assay: Activity of Escherichia coli beta-lactamase Toho-1 D240S mutant assessed as compound hydrolysis by spectrophotometry
Escherichia coli [3] = assay: Activity of Escherichia coli beta-lactamase Toho-1 D240A mutant assessed as compound hydrolysis by spectrophotometry
Escherichia coli [4] = assay: Activity of Escherichia coli beta-lactamase Toho-1 C69A mutant assessed as compound hydrolysis by spectrophotometry
Escherichia coli [5] = assay: Activity of Escherichia coli beta-lactamase Toho-1 F160T mutant assessed as compound hydrolysis by spectrophotometry
Escherichia coli [6] = assay: Activity of Escherichia coli beta-lactamase Toho-1 G232A mutant assessed as compound hydrolysis by spectrophotometry
Escherichia coli [7] = assay: Ratio of Kcat to Km for Escherichia coli beta-lactamase Toho-1 N104A mutant assessed as compound hydrolysis by spectrophotometry
Escherichia coli [8] = assay: Ratio of Kcat to Km for Escherichia coli beta-lactamase Toho-1 N104D mutant assessed as compound hydrolysis by spectrophotometry
Escherichia coli [9] = assay: Ratio of Kcat to Km for Escherichia coli beta-lactamase Toho-1 […] mutant assessed as compound hydrolysis by spectrophotometry
Escherichia coli [10] = assay: Ratio of Kcat to Km for Escherichia coli beta-lactamase Toho-1 D240S mutant assessed as compound hydrolysis by spectrophotometry
Escherichia coli [11] = assay: Ratio of Kcat to Km for Escherichia coli beta-lactamase Toho-1 D240A mutant assessed as compound hydrolysis by spectrophotometry
Escherichia coli [12] = assay: Ratio of Kcat to Km for Escherichia coli beta-lactamase Toho-1 C69A mutant assessed as compound hydrolysis by spectrophotometry
Escherichia coli [13] = assay: Ratio of Kcat to Km for Escherichia coli beta-lactamase Toho-1 F160T mutant assessed as compound hydrolysis by spectrophotometry
Escherichia coli [14] = assay: Ratio of Kcat to Km for Escherichia coli beta-lactamase Toho-1 G232A mutant assessed as compound hydrolysis by spectrophotometry
Escherichia coli [15] = assay: Antibacterial activity against Escherichia coli AS226 carrying pBSD-H2 after 18 hrs by broth microdilution method; assay type: functional; settings: AS226, 18 h
Escherichia coli [16] = assay: Antibacterial activity against Escherichia coli AS226 carrying pBSDN104A mutant after 18 hrs by broth microdilution method; assay type: functional; settings: AS226, 18 h
Escherichia coli [17] = assay: Antibacterial activity against Escherichia coli AS226 carrying pBSDN104D mutant after 18 hrs by broth microdilution method; assay type: functional; settings: AS226, 18 h
Escherichia coli [18] = assay: Antibacterial activity against Escherichia coli AS226 carrying pBSDS237A mutant after 18 hrs by broth microdilution method; assay type: functional; settings: AS226, 18 h
Escherichia coli [19] = assay: Antibacterial activity against Escherichia coli AS226 carrying pBSDD240S mutant after 18 hrs by broth microdilution method; assay type: functional; settings: AS226, 18 h
Escherichia coli [20] = assay: Antibacterial activity against Escherichia coli AS226 carrying pBSDD240A mutant after 18 hrs by broth microdilution method; assay type: functional; settings: AS226, 18 h
Escherichia coli [21] = assay: Antibacterial activity against Escherichia coli AS226 carrying pBSDC69A mutant after 18 hrs by broth microdilution method; assay type: functional; settings: AS226, 18 h
Escherichia coli [22] = assay: Antibacterial activity against Escherichia coli AS226 carrying pBSDF160T mutant after 18 hrs by broth microdilution method; assay type: functional; settings: AS226, 18 h
Escherichia coli [23] = assay: Antibacterial activity against Escherichia coli AS226 carrying pBSD6 mutant after 18 hrs by broth microdilution method; assay type: functional; settings: AS226, 18 h
Escherichia coli [24] = assay: Antibacterial activity against Escherichia coli AS226 after 18 hrs by broth microdilution method; assay type: functional; settings: AS226, 18 h
Escherichia coli [25] = assay: Activity of Escherichia coli beta-lactamase Toho-1 N104D mutant assessed as compound hydrolysis by spectrophotometry
Escherichia coli [26] = assay: Activity of Escherichia coli beta-lactamase Toho-1 N104A mutant assessed as compound hydrolysis by spectrophotometry
[27] = substrate: CC(=O)OCC1=C(C(=O)O)N2C(=O)[C@@H](NC(=O)Cc3cccs3)[C@H]2SC1; assay: (§1) Activity of Escherichia coli wild type beta-lactamase Toho-1 assessed as compound hydrolysis by spectrophotometry
[28] = substrate: CC1(C)S[C@@H]2[C@H](NC(=O)[C@H](N)c3ccccc3)C(=O)N2[C@H]1C(=O)O; assay: as §1
[29] = substrate: CO/N=C(\C(=O)N[C@@H]1C(=O)N2C(C(=O)O)=C(COC(C)=O)CS[C@H]12)c1csc(N)n1; assay: as §1
[30] = substrate: CO/N=C(\C(=O)N[C@@H]1C(=O)N2C(C(=O)O)=C(CSc3cnns3)CS[C@H]12)c1csc(N)n1; assay: as §1
[31] = substrate: C[C@H]1[C@H](NC(=O)/C(=N\OC(C)(C)C(=O)O)c2csc(N)n2)C(=O)N1S(=O)(=O)O; assay: as §1
[32] = substrate: O=C(Cc1cccs1)N[C@@H]1C(=O)N2C(C(=O)[O-])=C(C[n+]3ccccc3)CS[C@H]12; assay: as §1
[33] = substrate: CC(=O)OCC1=C(C(=O)O)N2C(=O)[C@@H](NC(=O)Cc3cccs3)[C@H]2SC1; assay: (§2) Ratio of Kcat to Km for Escherichia coli wild type beta-lactamase Toho-1 assessed as compound hydrolysis by spectrophotometry
[34] = substrate: CO/N=C(\C(=O)N[C@@H]1C(=O)N2C(C(=O)O)=C(COC(C)=O)CS[C@H]12)c1csc(N)n1; assay: as §2
[35] = substrate: CO/N=C(\C(=O)N[C@@H]1C(=O)N2C(C(=O)O)=C(CSc3cnns3)CS[C@H]12)c1csc(N)n1; assay: as §2
[36] = substrate: C[C@H]1[C@H](NC(=O)/C(=N\OC(C)(C)C(=O)O)c2csc(N)n2)C(=O)N1S(=O)(=O)O; assay: as §2
[37] = substrate: O=C(Cc1cccs1)N[C@@H]1C(=O)N2C(C(=O)[O-])=C(C[n+]3ccccc3)CS[C@H]12; assay: as §2

Row | Molecule | Km (Escherichia coli [1]) | kcat (Escherichia coli [1]) | Km (Escherichia coli [2]) | kcat (Escherichia coli [2]) | Km (Escherichia coli [3]) | kcat (Escherichia coli [3]) | Km (Escherichia coli [4]) | kcat (Escherichia coli [4]) | Km (Escherichia coli [5]) | kcat (Escherichia coli [5]) | Km (Escherichia coli [6]) | kcat (Escherichia coli [6]) | kcat/Km (Escherichia coli [7]) | kcat/Km (Escherichia coli [8]) | kcat/Km (Escherichia coli [9]) | kcat/Km (Escherichia coli [10]) | kcat/Km (Escherichia coli [11]) | kcat/Km (Escherichia coli [12]) | kcat/Km (Escherichia coli [13]) | kcat/Km (Escherichia coli [14]) | also measured
1 | CO/N=C(\C(=O)N[C@@H]1C(=O)N2C(C(=O)O)=C(COC(C)=O)CS[C@H]12)c1csc(N)n1 [CEFOTAXIME] | 230 µM | 94 s⁻¹ | 320 µM | 370 s⁻¹ | 360 µM | 440 s⁻¹ | 350 µM | 370 s⁻¹ | 360 µM | 410 s⁻¹ | 259 µM | 440 s⁻¹ | 1.2 ×10⁵ /s/M | 2.4 ×10⁵ /s/M | 4.1 ×10⁵ /s/M | 1.2 ×10⁶ /s/M | 1.3 ×10⁶ /s/M | 1 ×10⁶ /s/M | 1.2 ×10⁶ /s/M | 1.7 ×10⁶ /s/M | MIC (Escherichia coli [15]): 256 µg/mL (≈ 562 µM); MIC (Escherichia coli [16]): 16 µg/mL (≈ 35.1 µM); MIC (Escherichia coli [17]): 256 µg/mL (≈ 562 µM); MIC (Escherichia coli [18]): 32 µg/mL (≈ 70.3 µM); MIC (Escherichia coli [19]): 1020 µg/mL (≈ 2250 µM); MIC (Escherichia coli [20]): 512 µg/mL (≈ 1120 µM); MIC (Escherichia coli [21]): 1020 µg/mL (≈ 2250 µM); MIC (Escherichia coli [22]): 256 µg/mL (≈ 562 µM); MIC (Escherichia coli [23]): 2 µg/mL (≈ 4.39 µM); MIC (Escherichia coli [24]): < 0.125 µg/mL
2 | CC1(C)S[C@@H]2[C@H](NC(=O)[C@H](N)c3ccccc3)C(=O)N2[C@H]1C(=O)O [AMPICILLIN] | 120 µM | 310 s⁻¹ | 25 µM | 33 s⁻¹ | 21 µM | 27 s⁻¹ | 20 µM | 38 s⁻¹ | 26 µM | 39 s⁻¹ | 35 µM | 37 s⁻¹ | 7.2 ×10⁵ /s/M | 1.1 ×10⁶ /s/M | 2.5 ×10⁶ /s/M | 1.3 ×10⁶ /s/M | 1.2 ×10⁶ /s/M | 1.9 ×10⁶ /s/M | 1.5 ×10⁶ /s/M | 1.1 ×10⁶ /s/M | Km (Escherichia coli [25]): 25 µM; kcat (Escherichia coli [25]): 28 s⁻¹; Km (Escherichia coli [26]): 38 µM; kcat (Escherichia coli [26]): 27 s⁻¹; MIC (Escherichia coli [15]): 256 µg/mL (≈ 733 µM); MIC (Escherichia coli [16]): 256 µg/mL (≈ 733 µM); MIC (Escherichia coli [17]): 1020 µg/mL (≈ 2930 µM); MIC (Escherichia coli [18]): 4100 µg/mL (≈ 11700 µM); MIC (Escherichia coli [19]): 512 µg/mL (≈ 1470 µM); MIC (Escherichia coli [20]): 512 µg/mL (≈ 1470 µM); MIC (Escherichia coli [21]): 1020 µg/mL (≈ 2930 µM); MIC (Escherichia coli [22]): 512 µg/mL (≈ 1470 µM); MIC (Escherichia coli [23]): 128 µg/mL (≈ 366 µM); MIC (Escherichia coli [24]): 1 µg/mL (≈ 2.86 µM)
3 | O=C(Cc1cccs1)N[C@@H]1C(=O)N2C(C(=O)[O-])=C(C[n+]3ccccc3)CS[C@H]12 [CEPHALORIDINE] | 270 µM | 320 s⁻¹ | 250 µM | 190 s⁻¹ | 200 µM | 140 s⁻¹ | 300 µM | 300 s⁻¹ | 430 µM | 470 s⁻¹ | 290 µM | 440 s⁻¹ | 2.2 ×10⁵ /s/M | 3 ×10⁵ /s/M | 1.2 ×10⁶ /s/M | 7.6 ×10⁵ /s/M | 7.1 ×10⁵ /s/M | 1 ×10⁶ /s/M | 1.1 ×10⁶ /s/M | 1.5 ×10⁶ /s/M | Km (Escherichia coli [25]): 400 µM; kcat (Escherichia coli [25]): 120 s⁻¹; Km (Escherichia coli [26]): 450 µM; kcat (Escherichia coli [26]): 99 s⁻¹; MIC (Escherichia coli [15]): 1020 µg/mL (≈ 2460 µM); MIC (Escherichia coli [16]): 32 µg/mL (≈ 77 µM); MIC (Escherichia coli [17]): 256 µg/mL (≈ 616 µM); MIC (Escherichia coli [18]): 2050 µg/mL (≈ 4930 µM); MIC (Escherichia coli [19]): 1020 µg/mL (≈ 2460 µM); MIC (Escherichia coli [20]): 1020 µg/mL (≈ 2460 µM); MIC (Escherichia coli [21]): 1020 µg/mL (≈ 2460 µM); MIC (Escherichia coli [22]): 512 µg/mL (≈ 1230 µM); MIC (Escherichia coli [23]): 8 µg/mL (≈ 19.3 µM); MIC (Escherichia coli [24]): 2 µg/mL (≈ 4.81 µM)
4 | CO/N=C(\C(=O)N[C@@H]1C(=O)N2C(C(=O)O)=C(CSc3cnns3)CS[C@H]12)c1csc(N)n1 [CEFUZONAM] | 140 µM | 130 s⁻¹ | 220 µM | 430 s⁻¹ | 260 µM | 550 s⁻¹ | 240 µM | 560 s⁻¹ | 220 µM | 470 s⁻¹ | 190 µM | 630 s⁻¹ | 2.8 ×10⁵ /s/M | 5.7 ×10⁵ /s/M | 9.4 ×10⁵ /s/M | 2 ×10⁶ /s/M | 2.1 ×10⁶ /s/M | 2.3 ×10⁶ /s/M | 2.1 ×10⁶ /s/M | 3.3 ×10⁶ /s/M | MIC (Escherichia coli [15]): 2050 µg/mL (≈ 3990 µM); MIC (Escherichia coli [16]): 16 µg/mL (≈ 31.2 µM); MIC (Escherichia coli [17]): 64 µg/mL (≈ 125 µM); MIC (Escherichia coli [18]): 1020 µg/mL (≈ 1990 µM); MIC (Escherichia coli [19]): 256 µg/mL (≈ 498 µM); MIC (Escherichia coli [20]): 1020 µg/mL (≈ 1990 µM); MIC (Escherichia coli [21]): 2050 µg/mL (≈ 3990 µM); MIC (Escherichia coli [22]): 512 µg/mL (≈ 997 µM); MIC (Escherichia coli [23]): 2 µg/mL (≈ 3.89 µM); MIC (Escherichia coli [24]): < 0.125 µg/mL
5 | B1 | – | – | – | – | – | – | – | – | – | – | – | – | – | – | – | – | – | – | – | – | Km [27]: 190 µM; kcat [27]: 790 s⁻¹; Km [28]: 24 µM; kcat [28]: 42 s⁻¹; Km [29]: 210 µM; kcat [29]: 390 s⁻¹; Km [30]: 150 µM; kcat [30]: 530 s⁻¹; Km [31]: 45 µM; kcat [31]: 8.3 s⁻¹; Km [32]: 280 µM; kcat [32]: 420 s⁻¹; kcat/Km [33]: 4.3 ×10⁶ /s/M; kcat/Km [34]: 1.9 ×10⁶ /s/M; kcat/Km [35]: 3.5 ×10⁶ /s/M; kcat/Km [36]: 1.9 ×10⁵ /s/M; kcat/Km [37]: 1.5 ×10⁶ /s/M
